{"source": "patent US20250295143A1", "about": "“USE OF ALPHA LIPOIC ACID AS A FEED ADDITIVE FOR AQUATIC ANIMALS” (DSM IP ASSETS B.V., priority 2018, published 2025)", "key": {"IPN [1]": {"test_system": "IPN", "assay": "Mortality in Atlantic salmon following IPN challenge", "format": "in vivo", "settings": "A. salmon", "procedure": "(§1) The first study evaluated dietary alpha-lipoic acid (LA) at 500 mg/kg compared to control basal diet fed fish. Pre-feeding experimental diets for ˜5 weeks, growing from ˜0.2 g to ˜0.5 g in 4 replicate tanks per diet. Water temperature at 12° C.±1° C. Min. 30 fish per diet (tank). Disease challenge by cohabitation with fish infected with Salmon Alfa Virus (SAV).\n(§2) This was intended to transmit the infection to the test groups leading to clinical Pancreas Disease (PD). The challenge lasted for 9.5 weeks (˜2 g), mortality recorded daily.\nThe fourth study evaluated dietary alpha-lipoic acid at 3 doses 500, 750 and 1000 mg/kg compared to control basal diet fed fish for resistance to virus disease (IPN). The experiment was carried out as described for the first study."}, "[2]": {"test_system": "white spot syndrome virus (WSSV)", "assay": "Mortality in shrimp following WSSV challenge", "format": "in vivo", "procedure": "The fourth study evaluated dietary alpha-lipoic acid at 650 mg/kg compared to control basal diet fed shrimp for resistance to white spot syndrome virus disease (WSSV). The experiment was carried out under standard conditions for shrimp. Pre-feeding experimental diets for ˜4 weeks. Mortality was recorded daily."}, "phagocytes": {"test_system": "phagocytes", "assay": "Oxidative burst of phagocytes from rainbow trout fed LA", "format": "cell-based", "settings": "rainbow trout fed 125, 250 and 500 mg/kg for 4 weeks; any treatment group vs control", "procedure": "(§3) Rainbow trout were fed for 4 weeks with graded levels of LA (125, 250 and 500 mg/kg) compared to basal control diet fed fish. A range of functional immune assays of tissues/cells obtained at the end of the feeding period were conducted to investigate the possible mode of action observed in the disease challenge studies.\nThe capacity of Oxidative burst of phagocytes was assayed to assess anti-oxidation or pro-oxidation activity, as widely reported for use of LA (Kutter et al., 2014)."}, "[3]": {"assay": "Feed conversion ratio (FCR) in rainbow trout", "format": "in vivo", "settings": "for (Cumulative) Feed conversion ratio (FCR), Feed as fed basis (kg)/weight gain (kg), Mean: rainbow trout", "procedure": "This study evaluated dietary alpha-lipoic acid at 3 doses 250, 500 and 1000 mg/kg compared to control basal diet fed fish for feed conversion ratio. Rainbow trout with an initial weight around 50 g were fed for ˜6 weeks with graded levels of LA compared to basal control diet fed fish in 4 replicate tanks per diet with 50 fish per tank. The fish were fed automatically and daily with an excess of experimental diets with regard to feeding instructions for control basal diet and weighted every two weeks. Excess feed was removed daily."}, "IPN [4]": {"test_system": "IPN", "assay": "Performance (growth reduction) of Atlantic salmon following IPN challenge", "format": "in vivo", "procedure": "This study evaluated dietary alpha-lipoic acid at 3 doses 500, 750 and 1000 mg/kg compared to control basal diet fed fish for performance after disease (IPN) challenge in atlantic salmon and was carried out in succession of the fifth study by weighting the fish and comparing the challenged LA and control fed fish with the unchallenged control fed fish."}, "Noda Virus (VNN)": {"test_system": "Noda Virus (VNN)", "assay": "Mortality in Sea Bass fry following VNN (Noda virus) challenge by cohabitation", "format": "in vivo", "procedure": "The seventh study evaluated dietary alpha-lipoic acid (LA) at 250, 500 and 750 mg/kg compared to control basal diet fed fish in Sea Bass fry. Pre-feeding experimental diets for 5-6 weeks, growing from ˜0.7 g to ˜1.4 g. Water temperature at 25° C. 133 fish per diet (tank). Disease challenge by cohabitation with fish infected with Noda Virus (VNN). This was intended to transmit the infection to the test groups. Mortality was recorded daily."}, "Salmon Alfa Virus (SAV)": {"test_system": "Salmon Alfa Virus (SAV)", "assay": "Mortality in Atlantic salmon fry following SAV challenge by cohabitation (Pancreas Disease)", "format": "in vivo", "settings": "for survival compared to control diet fed fish / Relative Percent Survival (RPS): Study 2, SAV challenge; for end mortality compared to control: Study 3, all three SAV challenge trials", "procedure": "as §1, §2\nThe second study evaluated dietary alpha-lipoic acid at 3 doses 125, 250 and 500 mg/kg compared to control basal diet fed fish for resistance to virus disease (PD). The experiment was carried out as described for the first study.\nIn this study three separate virus challenge trials evaluated dietary alpha-lipoic acid at 3 doses 250, 500 and 1000 mg/kg compared to control basal diet fed fish for resistance to virus disease (PD). The experiment was carried out as described for the first study."}, "lymphocytes": {"test_system": "lymphocytes", "assay": "Apoptosis of lymphocytes from rainbow trout fed LA", "format": "cell-based", "procedure": "as §3\nThe apoptosis pathway (programmed cell death) was investigated by assaying the ability of lymphocytes to prevent apoptosis occurring following incubation with Campto, a chemical stimulator of apoptosis. […] This level of reduction in apoptosis is quite remarkable."}}, "data": [{"smiles": "O=C(O)CCCCC1CCSS1", "note": "(stereo not drawn) [alpha-lipoic acid]", "values": [{"measurement": "RPS", "setting": "IPN [1]; 500 ppm in diet vs control", "value": 7.1, "unit": "%"}, {"measurement": "RPS", "setting": "IPN [1]; 500 ppm in diet vs control, listed as LA", "value": 7, "unit": "%"}, {"measurement": "Mean Survival", "setting": "IPN [1]; 500 ppm in diet", "value": 62.0, "unit": "%"}, {"measurement": "Mean mortality", "setting": "IPN [1]; 500 ppm in diet", "value": 38.0, "unit": "%"}, {"measurement": "RPS", "setting": "IPN [1]; 750 ppm in diet vs control", "value": 27.6, "unit": "%"}, {"measurement": "RPS", "setting": "IPN [1]; 750 ppm in diet vs control, listed as LA", "value": 28, "unit": "%"}, {"measurement": "Mean Survival", "setting": "IPN [1]; 750 ppm in diet", "value": 70.4, "unit": "%"}, {"measurement": "Mean mortality", "setting": "IPN [1]; 750 ppm in diet", "value": 29.6, "unit": "%"}, {"measurement": "RPS", "setting": "IPN [1]; 1000 ppm in diet vs control", "value": "−1.0", "unit": "%"}, {"measurement": "RPS", "setting": "IPN [1]; 1000 ppm in diet vs control, listed as LA", "value": "−1", "unit": "%"}, {"measurement": "Mean Survival", "setting": "IPN [1]; 1000 ppm in diet", "value": 58.7, "unit": "%"}, {"measurement": "Mean mortality", "setting": "IPN [1]; 1000 ppm in diet", "value": 41.3, "unit": "%"}, {"measurement": "Mean Survival", "setting": "[2]; 650 ppm in diet", "value": 30.0, "unit": "%"}, {"measurement": "Mean mortality", "setting": "[2]; 650 ppm in diet", "value": 70.0, "unit": "%"}, {"measurement": "RPS", "setting": "[2]; 650 ppm in diet vs control", "value": 8.7, "unit": "%"}, {"measurement": "extracellular or intracellular oxidative burst of phagocytes", "setting": "phagocytes", "value": "no significant difference"}, {"measurement": "(Cumulative) Feed conversion ratio (FCR), Feed as fed basis (kg)/weight gain (kg), Mean", "setting": "[3]; AL 250, period 0-15 days", "value": 0.65}, {"measurement": "(Cumulative) Feed conversion ratio (FCR), Feed as fed basis (kg)/weight gain (kg), Mean", "setting": "[3]; AL 250, period 0-30 days", "value": 0.67}, {"measurement": "(Cumulative) Feed conversion ratio (FCR), Feed as fed basis (kg)/weight gain (kg), Mean", "setting": "[3]; AL 250, period 0-44 days", "value": 0.67}, {"measurement": "(Cumulative) Feed conversion ratio (FCR), Feed as fed basis (kg)/weight gain (kg), Mean", "setting": "[3]; AL 500, period 0-15 days", "value": 0.66}, {"measurement": "(Cumulative) Feed conversion ratio (FCR), Feed as fed basis (kg)/weight gain (kg), Mean", "setting": "[3]; AL 500, period 0-30 days", "value": 0.67}, {"measurement": "(Cumulative) Feed conversion ratio (FCR), Feed as fed basis (kg)/weight gain (kg), Mean", "setting": "[3]; AL 500, period 0-44 days", "value": 0.68}, {"measurement": "(Cumulative) Feed conversion ratio (FCR), Feed as fed basis (kg)/weight gain (kg), Mean", "setting": "[3]; AL 1000, period 0-15 days", "value": 0.65}, {"measurement": "(Cumulative) Feed conversion ratio (FCR), Feed as fed basis (kg)/weight gain (kg), Mean", "setting": "[3]; AL 1000, period 0-30 days", "value": 0.67}, {"measurement": "(Cumulative) Feed conversion ratio (FCR), Feed as fed basis (kg)/weight gain (kg), Mean", "setting": "[3]; AL 1000, period 0-44 days", "value": 0.68}, {"measurement": "feed conversion ratios compared to control diet fed fish", "setting": "[3]; rainbow trout fed 250, 500 and 1000 mg/kg for ~6 weeks", "value": "improved"}, {"measurement": "performance compared to challenged control diet fed fish", "setting": "IPN [4]; 500 mg/kg", "value": "performed better"}, {"measurement": "performance compared to challenged control diet fed fish", "setting": "IPN [4]; 750 mg/kg", "value": "significantly better performance"}, {"measurement": "performance compared to challenged control diet fed fish", "setting": "IPN [4]; 1000 mg/kg", "value": "did not perform significantly better"}, {"measurement": "Mean Survival", "setting": "Noda Virus (VNN); 250 ppm in diet", "value": 84.2, "unit": "%"}, {"measurement": "Mean mortality", "setting": "Noda Virus (VNN); 250 ppm in diet", "value": 15.8, "unit": "%"}, {"measurement": "RPS", "setting": "Noda Virus (VNN); 250 ppm in diet vs control", "value": 59.6, "unit": "%"}, {"measurement": "RPS", "setting": "Noda Virus (VNN); 250 ppm in diet vs control, listed as lipoic acid", "value": 60, "unit": "%"}, {"measurement": "Mean Survival", "setting": "Noda Virus (VNN); 500 ppm in diet", "value": 86.7, "unit": "%"}, {"measurement": "Mean mortality", "setting": "Noda Virus (VNN); 500 ppm in diet", "value": 13.3, "unit": "%"}, {"measurement": "RPS", "setting": "Noda Virus (VNN); 500 ppm in diet vs control", "value": 66.0, "unit": "%"}, {"measurement": "RPS", "setting": "Noda Virus (VNN); 500 ppm in diet vs control, listed as lipoic acid", "value": 66, "unit": "%"}, {"measurement": "Mean Survival", "setting": "Noda Virus (VNN); 750 ppm in diet", "value": 78.3, "unit": "%"}, {"measurement": "Mean mortality", "setting": "Noda Virus (VNN); 750 ppm in diet", "value": 21.7, "unit": "%"}, {"measurement": "RPS", "setting": "Noda Virus (VNN); 750 ppm in diet vs control", "value": 44.7, "unit": "%"}, {"measurement": "RPS", "setting": "Noda Virus (VNN); 750 ppm in diet vs control, listed as lipoic acid", "value": 45, "unit": "%"}, {"measurement": "relative percent survival (RPS) compared to control diet", "setting": "Salmon Alfa Virus (SAV); Study 1, 500 mg/kg feed, A. salmon fry, SAV challenge 9.5 weeks", "value": 63, "unit": "%"}, {"measurement": "survival compared to control diet fed fish", "setting": "Salmon Alfa Virus (SAV); 125 mg/kg", "value": "no observed effect"}, {"measurement": "survival compared to control diet fed fish", "setting": "Salmon Alfa Virus (SAV); 250 mg/kg", "value": "tendency for improved survival but this was not statistically significant"}, {"measurement": "Relative Percent Survival (RPS)", "setting": "Salmon Alfa Virus (SAV); 125 ppm in diet vs control, A. salmon fry", "value": "−17", "unit": "%"}, {"measurement": "Relative Percent Survival (RPS)", "setting": "Salmon Alfa Virus (SAV); 250 ppm in diet vs control, A. salmon fry", "value": 8, "unit": "%"}, {"measurement": "Relative Percent Survival (RPS)", "setting": "Salmon Alfa Virus (SAV); 500 ppm in diet vs control, A. salmon fry", "value": 34, "unit": "%"}, {"measurement": "Relative Percent Survival (RPS)", "setting": "Salmon Alfa Virus (SAV); 500 ppm in diet vs control, A. salmon fry, listed as LA", "value": 34, "unit": "%"}, {"measurement": "end mortality compared to control", "setting": "Salmon Alfa Virus (SAV); high dose 1000 mg/kg", "value": "significantly reduced"}, {"measurement": "end mortality compared to control", "setting": "Salmon Alfa Virus (SAV); medium dose 500 mg/kg", "value": "significantly reduced"}, {"measurement": "basal apoptosis activity of lymphocytes", "setting": "lymphocytes; no Campto used, LA treatment groups, not significant", "value": "trend for lower basal apoptosis activity"}, {"measurement": "apoptotic cells (lymphocytes) after incubation with Campto", "setting": "lymphocytes; rainbow trout fed 500 mg/kg for 4 weeks", "value": "significant reduction"}, {"measurement": "reduction of apoptotic cells (lymphocytes) after incubation with Campto", "setting": "lymphocytes; rainbow trout fed graded levels 125, 250 and 500 mg/kg for 4 weeks", "value": "clear dose response"}]}]}
